The values that follow come from publication PMC12389136, “Insights into the Structural Patterns in Human Glioblastoma Cell Line SF268 Activity and ADMET Prediction of Curcumin Derivatives” (Pharmaceutics, 2025).

For assay [1], the system named is SF268 glioblastoma cells. Description: MTT cytotoxicity in the glioblastoma cell line SF268 (single-concentration screening and IC50). It counts as cell-based, Human. As to the method: Cultures were maintained at 37 °C in a 5% CO2 atmosphere and split by trypsin treatment once per week to maintain confluence.
RPMI without cells was used as a color control, and doxorubicin was used as an inhibition control. After treatment, MTT was added to each well, and the absorbance at 570 nm was determined 4 h later using a color plate reader. All bioassays were performed in duplicate, and the IC50 values were determined by the Data Analysis complement Wizard of Excel 2000 (Microsoft, Seattle, WA, USA).

The test system of assay [2] is Vero cells. Kind of assay: Mammalian cytotoxicity, MTT assay in Vero cells. The format is cell-based. The conditions noted are these: Chlorocebus sabaeus, 48 h. Here is the method:
Grade IV SF268 glioblastoma cells and Vero epithelial cells were obtained from ATCC and cultured in complete medium consisting of Roswell Park Memorial Institute medium (RPMI-1640) supplemented with 0.05% gentamicin (50 mg/mL) and 10% FBS (fetal bovine serum; Gibco, Invitrogen, Carlsbad, CA, USA). Cultures were maintained at 37 °C in a 5% CO2 atmosphere and split by trypsin treatment once per week to maintain confluence.
For the cytotoxicity assays, Vero cells were cultivated in 96-well plates at 37 °C under a 5% CO2 atmosphere using RPMI-1640 medium with 0.05% gentamicin (50 mg/mL) and 10% FBS (fetal bovine serum). Vero cells were allowed to adhere for 24 h before being incubated for 48 h with the samples. During the treatment, dimethyl sulfoxide (DMSO) was used as a negative control, curcumin (1) was used as a control, and samples were assayed at four different concentrations. After incubation, MTT (3-(4,5-di-methyl-thiazol-2-yl)-2,5-diphenyl-tetrazolium bromide) was added to each well, and the absorbance at 570 nm was determined 4 h later using a color plate reader. Cytotoxicity was evaluated colorimetrically by calculating the ability of the remaining living Vero cells to reduce the pale yellow MTT to the black–purple formazan product, as previously described. All bioassays were performed in duplicate, and the inhibitory concentration (IC50) values were determined using the Data Analysis complement Wizard of Excel 2000 (Microsoft, Seattle, WA, USA).

For assay [3], the system named is SF268 cell microtubules. Description: Immunofluorescence staining of microtubules in SF268 cells. The format is cell-based, Human. Conditions: SF268, 10 µg/mL, 24 h / 12 h, versus DMSO control.
Protocol: SF268 cells were seeded onto 96-well plates and allowed to adhere overnight in complete growth medium (RPMI-1640).
After treatment, the cells were rinsed two times with PBS, fixed in 4% paraformaldehyde (15 min), and permeabilized with 0.5% Triton X-100 (Sigma Aldrich, St. Louis, MO, USA) (5 min). Nonspecific binding was blocked with 5% bovine serum albumin (BSA) in phosphate-buffered saline (PBS) for 1 h. […] Nuclei were counterstained with Hoechst 33342 (15 min), washed 2 times with PBS, and left in PBS at 4 °C in the dark.
Fluorescence images were acquired with an Olympus IX70 microscope (Olympus, Tokyo, Japan) using a 60× objective with identical exposure settings for all conditions. Microtubule density and organization were acquired and analyzed using β-tubulin signals in HCImage Hamamatsu (version 4.8) and ImageJ (version 1.54).
SF268 cells were exposed to media containing either DMSO as a control or curcumin derivatives at 10 μg/mL for 24 h, after which the microtubules were visualized with an α tubulin antibody (yellow), and the cell nuclei were stained with Hoechst (blue).
The cells were then stained with a β-tubulin antibody (yellow) and Hoechst dye (blue) to visualize the nucleus.
The subject of assay [4] is mitochondrial membrane potential of SF268 cancer cells. Kind of assay: Mitochondrial membrane potential measurement with DiOC6. The format is cell-based, Human. Conditions: 10 µg/mL, 6 h, versus DMSO control. Here is the method:
Changes in membrane potential were measured by staining cultured cells with the mitochondrial selective dye 3,3′-dihexyloxacarbocyanine (DiOC6) at 10 nM (Thermo Fisher, Waltham, MA, USA). The samples were incubated at 10 μg/mL for 6 h at 37 °C and then stained for 20 min with DiOC6 in the dark. Following incubation, the cells were washed, and the green fluorescence intensity of the DiOC6-stained cells was analyzed with a fluorometer immediately after staining. Incubation for 1 h with the mitochondrial membrane disruptor CCCP, carbonyl cyanide m-chlorophenylhydrazone (50 μM final concentration), was used as a positive control.
Changes in the mitochondrial membrane potential, a common hallmark of programmed cell death, were analyzed in samples with promising activities toward CNS cell line growth. We examined the effects of these compounds on the mitochondrial membrane potential using the dye DiOC6, a fluorophore that accumulates rapidly and selectively inside mitochondria depending on the membrane potential.
Figure 6 Changes in mitochondrial membrane potential caused by the compounds. Fluorometry was used to measure the mitochondrial effects of compounds that inhibited cell growth in culture. A membrane disruptor (CCCP) was added as a positive control, and untreated cultures (DMSO) were used as a negative control. […]

For assay [5], the system named is ROS production in SF268 cells. Kind of assay: Intracellular reactive oxygen species production (DCFDA). It counts as cell-based, Human. The conditions noted are these: derivatives 10 µg/mL for 3 h, H2O2 100 µM positive control. Here is the method:
Intracellular ROS formation was measured by fluorometry with the reactive dye chloromethyl dichlorodihydrofluorescein diacetate (DCFDA; Molecular Probes). […] Cultures were incubated with curcumin derivatives at 10 μg/mL for 3 h, after which the ROS-specific fluorescent dye DCFDA solution was added to the cells. After 30 min, fluorescence was measured at a wavelength of 485 nm (excitation)/535 nm (emission) using a microplate reader (Molecular Devices, San Jose, CA, USA).
Intracellular ROS production was tested following the treatment of SF268 cells with the curcumin derivatives at 10 μg/mL by fluorometry after staining with DCFDA.
Figure 7 Effects of curcumin derivatives on ROS generation. Cells were treated with curcumin derivatives at 10 μg/mL for 3 h. ROS production was determined using the DCFH-DA assay.

Molecules are shown by their SMILES.

`C=CCOC(=O)CCC(=O)Oc1ccc(/C=C/C(=O)/C=C(O)/C=C/c2ccc(O)c(OC)c2)cc1OC` [Compound 11, Allyl (4-(1E,3Z,6E)-3-hydroxy-7-(4-hydroxy-3-methoxyphenyl)-5-oxohepta-1,3,6-trien-1-yl)-2-methoxyphenyl) succinate]: in assay [1] (Homo sapiens, SF-268, 48 h, SF268, single concentration 10 µg/mL, 48 h, MTT, percentage of relative growth, read-out: Growth Screening (%RG)), the activity at 10 µg/mL is not above 40%. Besides, the IC50 in assay [1] (Homo sapiens, SF-268, SF268, 48 h, MTT) was found to be 0.59 µg/mL; in assay [2] it was 11.9 µg/mL. In addition, the “Selectivity Index (SI)” value in assay [1] (Vero versus SF268) is on record as 20.17. The “microtubule density and organization” value in assay [3] is recorded as “significant reduction in microtubule density”. For the same molecule, in assay [4], the “mitochondrial membrane potential (DiOC6 fluorescence intensity)” value is “lowest fluorescence intensity”.
Consider `OO` [Compound H2O2, Hydrogen peroxide], for which the ROS production entry in assay [5] is reported as “distinct ROS production”.
Take `O=C1O[C@H]([C@@H](O)CO)C(O)=C1O` [ascorbic acid]: the ROS production result in assay [5] is on record as “expected decrease”.
